# Data reported in article PMC6413085, “A Validated HPLC-MS/MS Assay for 14-O-[(4,6-Diaminopyrimidine-2-yl)thioacetyl] Mutilin in Biological Samples and Its Pharmacokinetic, Distribution and Excretion via Urine and Feces in Rats” (Molecules, 2019).
# Like-named read-outs stand apart in the source and are kept apart here.
# Experiments:
# [1] = Pharmacokinetic study of DPTM in rats after i.v., i.m. and p.o. administration (HPLC-MS/MS, non-compartmental); assay type: in vivo; settings: Sprague-Dawley, plasma, rat; for Tmax: median (min–max); for bioavailability: read-out: F, absolute bioavailability; for MRT last: read-out: MRT0–t; for CL renal: read-out: CLR(0–t) renal clearance; for Vd: read-out: Vss
# Method: After administration of three i.v., i.m. and p.o. dose (10, 25 and 75 mg/kg) of DPTM to rats, the pharmacokinetic profiles of DPTM were quantified by the validated HPLC-MS/MS methods. […] Blood samples (approximately 200 µL) were collected into heparinized tubes through an indwelling catheter inserted in the jugular vein [30] at 0.083, 0.166, 0.5, 1, 2, 4, 6, 8, 12 and 24 h after i.v. dosing and at 0.083, 0.166, 0.5, 1, 2, 4, 6, 8, 12, 24 and 48 h after i.m. or p.o. dosing. The samples were immediately centrifuged (4000 rpm for 10 min) and the supernatants were taken out and stored in a freezer at −70 °C until analysis. The drug was extracted with acetonitrile using the condition previously described. Then, an aliquot of the reconstituted extracts was transferred and filtrated through a 0.22-μm cellulose membrane filter and 10 μL was injected into the HPLC-MS/MS system. A non-compartmental model was used to determine the pharmacokinetic parameters of DPTM. Pharmacokinetic parameters, including maximum plasma concentration (Cmax), time (Tmax), area under the plasma concentration versus time curve from zero to last sampling time (AUC0−t) and elimination half-life (t1/2) were calculated using WinNonlin software (version 2.1, Pharsight, Mountain View, CA, USA). The absolute bioavailability was calculated as follows:F = (AUCextravascular/(AUCi.v.) × (dosei.v./doseextravascular) × 100%. The data are presented as mean ± standard deviation (SD) except for Tmax values using median (minimum value–maximum value).
# [2] = Excretion via urine and feces study in rats; assay type: in vivo, Sprague-Dawley rats; settings: rat, 75 mg/kg
# Method: Excretion via urine and feces was studied in another six rats (half male and half female). After the rats were administered via a single i.v., i.m. and p.o. dose (75 mg/kg) of DPTM, urine and feces samples were collected at 0–4, 4–8, 8–12, 12–24, 24–36, 36–48, 48–72, 72–96, 96–144, 144–192 and 192–240 h intervals in plastic centrifuge tubes and stored at −70 °C until analysis. For quantitative analysis, the fecal samples were dried at 45 °C for 24 h and prepared by the established sample treatment procedure. The urinary samples were prepared by the established sample treatment procedure directly. The obtained samples were injected into the HPLC-MS/MS system for analysis.
# [3] = system: Gram-positive bacteria, including methicillin-resistant Staphylococcus aureus (MRSA), Staphylococcus aureus, Bacillus subtilis; design: method as in PMID 27940400; settings: S. aureus, B. subtilis; cited from earlier work
smiles,measurement,setting,value
"C=CC1(C)CC(OC(=O)CSc2nc(N)cc(N)n2)C2(C)C(C)CCC3(CCC(=O)C32)C(C)C1O (centres unmarked) [DPTM, 14-O-[(4,6-Diaminopyrimidine-2-yl)thioacetyl] mutilin]",Tmax,"[1]; im, 10 mg/kg",30 min
same,Tmax,"[1]; im, 25 mg/kg",30 min
same,Tmax,"[1]; im, 75 mg/kg",30 min
same,bioavailability,"[1]; im, i.m., 10 mg/kg",68.2%
same,MRT last,"[1]; im, i.m., 10 mg/kg",4.4 ± 0.3 h
same,bioavailability,"[1]; im, i.m., 25 mg/kg",48.5%
same,MRT last,"[1]; im, i.m., 25 mg/kg",4.8 ± 0.3 h
same,CL renal,"[1]; im, i.m., 75 mg/kg",46.2 ± 3.8 mL/min
same,bioavailability,"[1]; im, i.m., 75 mg/kg",15.8%
same,MRT last,"[1]; im, i.m., 75 mg/kg",4.2 ± 0.8 h
same,clearance,"[1]; iv, 10 mg/kg",5 mL/min/kg
same,Tmax,"[1]; iv, 10 mg/kg",4.8 min
same,clearance,"[1]; iv, 25 mg/kg",1.67 mL/min/kg
same,Tmax,"[1]; iv, 25 mg/kg",4.8 min
same,clearance,"[1]; iv, 75 mg/kg",0.5 mL/min/kg
same,Tmax,"[1]; iv, 75 mg/kg",4.98 min
same,MRT last,"[1]; iv, i.v., 10 mg/kg",1 ± 0.2 h
same,Vd,"[1]; iv, i.v., 10 mg/kg",0.3 ± 0.1 L/kg
same,MRT last,"[1]; iv, i.v., 25 mg/kg",1.3 ± 0.7 h
same,Vd,"[1]; iv, i.v., 25 mg/kg",0.2 L/kg
same,CL renal,"[1]; iv, i.v., 75 mg/kg",97.6 ± 9.6 mL/min
same,MRT last,"[1]; iv, i.v., 75 mg/kg",1.5 ± 0.4 h
same,Vd,"[1]; iv, i.v., 75 mg/kg",0.03 L/kg
same,Tmax,"[1]; po, 10 mg/kg",120 min
same,Tmax,"[1]; po, 25 mg/kg",120 min
same,Tmax,"[1]; po, 75 mg/kg",120 min
same,bioavailability,"[1]; po, p.o., 10 mg/kg",22.9%
same,MRT last,"[1]; po, p.o., 10 mg/kg",12.8 ± 0.1 h
same,bioavailability,"[1]; po, p.o., 25 mg/kg",24.3%
same,MRT last,"[1]; po, p.o., 25 mg/kg",9.8 ± 0.2 h
same,CL renal,"[1]; po, p.o., 75 mg/kg",12.2 ± 1.3 mL/min
same,bioavailability,"[1]; po, p.o., 75 mg/kg",4.17%
same,MRT last,"[1]; po, p.o., 75 mg/kg",6.9 ± 0.4 h
same,half-life,"[1]; im, 10 mg/kg, i.m., 10 mg/kg, read-out: t1/2 (converted)",210 min
same,AUC(0-t),"[1]; im, 10 mg/kg, rat serum, i.m., 10 mg/kg, read-out: AUC0→t",1500 ± 100 ng·h/mL
same,Cmax,"[1]; im, 10 mg/kg, rat serum, i.m., 10 mg/kg, read-out: Cmax",500 ± 100 ng/mL
same,half-life,"[1]; im, 25 mg/kg, i.m., 25 mg/kg, read-out: t1/2 (converted)",192 ± 12 min
same,AUC(0-t),"[1]; im, 25 mg/kg, rat serum, i.m., 25 mg/kg, read-out: AUC0→t",2600 ± 200 ng·h/mL
same,Cmax,"[1]; im, 25 mg/kg, rat serum, i.m., 25 mg/kg, read-out: Cmax",700 ± 100 ng/mL
same,half-life,"[1]; im, 75 mg/kg, i.m., 75 mg/kg, read-out: t1/2 (converted)",198 ± 18 min
same,AUC(0-t),"[1]; im, 75 mg/kg, i.m., range over 10, 25 and 75 mg/kg doses, read-out: area under the curve from 0 to 48 h (AUC0→t)",1520 to 5700 ng·h/mL
same,half-life,"[1]; im, 75 mg/kg, i.m., range over 10, 25 and 75 mg/kg doses, read-out: half-life (t1/2)",194 to 209 min
same,AUC(0-t),"[1]; im, 75 mg/kg, rat serum, i.m., 75 mg/kg, read-out: AUC0→t",5700 ± 200 ng·h/mL
same,Cmax,"[1]; im, 75 mg/kg, rat serum, i.m., 75 mg/kg, read-out: Cmax",1800 ± 100 ng/mL
same,Cmax,"[1]; im, range over 10, 25 and doses, read-out: maximum concentration (Cmax) of drug in serum",470 to 1830 ng/mL
same,half-life,"[1]; iv, 10 mg/kg, i.v., 10 mg/kg, read-out: t1/2 (converted)",102 ± 6 min
same,AUC(0-t),"[1]; iv, 10 mg/kg, rat serum, i.v., 10 mg/kg, read-out: AUC0→t",2200 ± 200 ng·h/mL
same,Cmax,"[1]; iv, 10 mg/kg, rat serum, i.v., 10 mg/kg, read-out: Cmax",7500 ± 400 ng/mL
same,half-life,"[1]; iv, 25 mg/kg, i.v., 25 mg/kg, read-out: t1/2 (converted)",102 ± 24 min
same,AUC(0-t),"[1]; iv, 25 mg/kg, rat serum, i.v., 25 mg/kg, read-out: AUC0→t",5400 ± 200 ng·h/mL
same,Cmax,"[1]; iv, 25 mg/kg, rat serum, i.v., 25 mg/kg, read-out: Cmax",16000 ± 500 ng/mL
same,half-life,"[1]; iv, 75 mg/kg, i.v., 75 mg/kg, read-out: t1/2 (converted)",114 ± 30 min
same,AUC(0-t),"[1]; iv, 75 mg/kg, i.v., range over 10, 25 and 75 mg/kg doses, read-out: area under the curve from 0 to 48 h (AUC0→t)",2230 to 36000 ng·h/mL
same,half-life,"[1]; iv, 75 mg/kg, i.v., range over 10, 25 and 75 mg/kg doses, read-out: half-life (t1/2)",102 to 112 min
same,AUC(0-t),"[1]; iv, 75 mg/kg, rat serum, i.v., 75 mg/kg, read-out: AUC0→t",36000 ± 300 ng·h/mL
same,Cmax,"[1]; iv, 75 mg/kg, rat serum, i.v., 75 mg/kg, read-out: Cmax",65100 ± 800 ng/mL
same,Cmax,"[1]; iv, range over 10, 25 and doses, read-out: maximum concentration (Cmax) of drug in serum",7540 to 65100 ng/mL
same,half-life,"[1]; po, 10 mg/kg, p.o., 10 mg/kg, read-out: t1/2 (converted)",276 ± 6 min
same,AUC(0-t),"[1]; po, 10 mg/kg, rat serum, p.o., 10 mg/kg, read-out: AUC0→t",500 ± 100 ng·h/mL
same,Cmax,"[1]; po, 10 mg/kg, rat serum, p.o., 10 mg/kg, read-out: Cmax",100 ng/mL
same,half-life,"[1]; po, 25 mg/kg, p.o., 25 mg/kg, read-out: t1/2 (converted)",264 ± 12 min
same,AUC(0-t),"[1]; po, 25 mg/kg, rat serum, p.o., 25 mg/kg, read-out: AUC0→t",1300 ± 100 ng·h/mL
same,Cmax,"[1]; po, 25 mg/kg, rat serum, p.o., 25 mg/kg, read-out: Cmax",200 ng/mL
same,half-life,"[1]; po, 75 mg/kg, p.o., 75 mg/kg, read-out: t1/2 (converted)",282 ± 24 min
same,AUC(0-t),"[1]; po, 75 mg/kg, p.o., range over 10, 25 and 75 mg/kg doses, read-out: area under the curve from 0 to 48 h (AUC0→t)",510 to 1500 ng·h/mL
same,half-life,"[1]; po, 75 mg/kg, p.o., range over 10, 25 and 75 mg/kg doses, read-out: half-life (t1/2)",263 to 282 min
same,AUC(0-t),"[1]; po, 75 mg/kg, rat serum, p.o., 75 mg/kg, read-out: AUC0→t",1500 ng·h/mL
same,Cmax,"[1]; po, 75 mg/kg, rat serum, p.o., 75 mg/kg, read-out: Cmax",300 ± 100 ng/mL
same,Cmax,"[1]; po, range over 10, 25 and doses, read-out: maximum concentration (Cmax) of drug in serum",50 to 310 ng/mL
same,DPTM in urine (192 h) and feces (240 h) at the last acquisition time point,[2]; LLOQ 5 ng/mL,lower than that of the LLOQ
same,prototype drug excreted in urine at 192 h,[2]; i.m.,1.39%
same,prototype drug excreted in urine at 192 h,[2]; i.v.,1.63%
same,prototype drug excreted in urine at 192 h,[2]; p.o.,1.20%
same,in vitro activities against Gram-positive bacteria,[3],excellent in vitro activities
